Activity calls are given as the source filed them.
Assays:
Cannabinoid receptor 1 [1] = target: T1, Cannabinoid receptor 1 (Homo sapiens, UniProt P21554); test: SAR analysis of agonists of the Cannabinoid Receptor 1 using an Image-Based Assay - Set 4. [Related pubchem assays (depositor defined):AID2013, AID2026]; type: functional
Cannabinoid receptor 1 [2] = target: T1, Cannabinoid receptor 1; test: SAR analysis of antagonists of the Cannabinoid Receptor 1 using an Image-Based Assay - Set 4. [Related pubchem assays (depositor defined):AID2013, AID2026]; type: functional
[3] = target: G-protein coupled receptor 55 (Homo sapiens, UniProt Q9Y2T6); test: SAR Analysis of Selective Antagonists of GPR55 using an Image-Based Assay - Set 4. [Related pubchem assays (depositor defined):AID2013, AID2026]; type: functional;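 further: antagonism of response to 5 µM lysophosphatidylinositol agonist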
Sequence of G-protein coupled receptor 55 (Q9Y2T6 whole entry): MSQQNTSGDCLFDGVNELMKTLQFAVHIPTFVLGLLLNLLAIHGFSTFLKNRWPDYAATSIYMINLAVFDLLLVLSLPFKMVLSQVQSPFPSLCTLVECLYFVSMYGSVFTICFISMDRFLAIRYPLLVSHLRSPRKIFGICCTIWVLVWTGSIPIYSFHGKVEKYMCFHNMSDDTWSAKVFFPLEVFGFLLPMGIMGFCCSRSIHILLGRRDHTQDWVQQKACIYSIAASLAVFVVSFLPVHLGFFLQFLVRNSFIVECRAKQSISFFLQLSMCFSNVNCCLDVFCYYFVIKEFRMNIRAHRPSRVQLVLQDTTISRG

Cannabinoid receptor 2 [4] = target: T2, Cannabinoid receptor 2 (Homo sapiens, UniProt P34972); test: SAR analysis of antagonists of the Cannabinoid Receptor 2 using an Image-Based Assay - Set 3. [Related pubchem assays (depositor defined):AID2013, AID2026]; type: functional
T2 sequence (P34972 whole entry): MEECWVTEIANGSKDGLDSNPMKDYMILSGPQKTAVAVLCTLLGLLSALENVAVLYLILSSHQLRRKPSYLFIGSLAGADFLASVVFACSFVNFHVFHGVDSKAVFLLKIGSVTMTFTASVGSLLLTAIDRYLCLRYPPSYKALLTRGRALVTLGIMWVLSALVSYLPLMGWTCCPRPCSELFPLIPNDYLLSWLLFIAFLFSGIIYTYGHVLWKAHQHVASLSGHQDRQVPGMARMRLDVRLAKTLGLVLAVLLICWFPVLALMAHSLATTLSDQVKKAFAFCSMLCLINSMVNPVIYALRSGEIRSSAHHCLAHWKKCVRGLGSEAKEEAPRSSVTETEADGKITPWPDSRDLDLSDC

[5] = target: T3, G-protein coupled receptor 35 (Homo sapiens, UniProt Q9HC97); test: SAR analysis of Agonists of the GPR35 Receptor using an Image-Based Assay - Set 4. [Related pubchem assays (depositor defined):AID2013, AID2026]; type: functional
T3 sequence (Q9HC97 whole entry): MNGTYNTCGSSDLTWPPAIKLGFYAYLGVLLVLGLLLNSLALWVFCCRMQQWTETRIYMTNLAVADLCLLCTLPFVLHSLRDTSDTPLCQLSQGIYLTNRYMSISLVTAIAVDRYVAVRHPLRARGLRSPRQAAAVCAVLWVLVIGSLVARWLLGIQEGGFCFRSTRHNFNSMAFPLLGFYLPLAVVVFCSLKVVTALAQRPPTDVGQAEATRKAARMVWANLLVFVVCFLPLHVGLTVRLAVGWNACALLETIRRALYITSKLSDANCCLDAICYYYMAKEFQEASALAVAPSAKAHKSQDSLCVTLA

[6] = target: T4, Probable nicotinate-nucleotide adenylyltransferase (Staphylococcus aureus (strain N315), UniProt P65502); type: functional, Staphylococcus aureus subsp. aureus N315;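 on IC50 Mean: confirmatory dose-response retesting of NadD inhibitor hits first found in an ultra-high-throughput screen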
T4 sequence (P65502 whole entry): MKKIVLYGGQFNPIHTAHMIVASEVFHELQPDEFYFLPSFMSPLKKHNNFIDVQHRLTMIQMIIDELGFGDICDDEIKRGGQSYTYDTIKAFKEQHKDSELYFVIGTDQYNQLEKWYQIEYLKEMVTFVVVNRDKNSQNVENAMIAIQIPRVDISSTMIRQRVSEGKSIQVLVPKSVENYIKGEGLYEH

[7] = target: T3, G-protein coupled receptor 35; test: SAR analysis of Antagonists of the GPR35 Receptor using an Image-Based Assay - Set 6. [Related pubchem assays (depositor defined):AID2013, AID2026]; type: functional
[8] = target: T4, Probable nicotinate-nucleotide adenylyltransferase; type: functional, Staphylococcus aureus subsp. aureus N315; conditions: read-out: IC50_Mean
Cannabinoid receptor 2 [9] = target: T2, Cannabinoid receptor 2; test: SAR analysis of agonists of the Cannabinoid Receptor 2 using an Image-Based Assay - Set 3. [Related pubchem assays (depositor defined):AID2013, AID2026]; type: functional
[10] = target: Tyrosine-protein phosphatase non-receptor type 12 (Homo sapiens, UniProt Q05209); test: SAR Selectivity Analysis of small molecule inhibitors of PEST using pCAP in a fluorescence assay. [Related pubchem assays (depositor defined):AID1779, AID1784, AID2135]; type: functional
[11] = target: T5, Tyrosine-protein phosphatase non-receptor type 7 (Homo sapiens, UniProt P35236); test: redox-active compounds inhibiting HePTP phosphatase – biochemical, fluorescence, mechanism study (AID 2068); type: functional
T5 sequence (P35236 whole entry): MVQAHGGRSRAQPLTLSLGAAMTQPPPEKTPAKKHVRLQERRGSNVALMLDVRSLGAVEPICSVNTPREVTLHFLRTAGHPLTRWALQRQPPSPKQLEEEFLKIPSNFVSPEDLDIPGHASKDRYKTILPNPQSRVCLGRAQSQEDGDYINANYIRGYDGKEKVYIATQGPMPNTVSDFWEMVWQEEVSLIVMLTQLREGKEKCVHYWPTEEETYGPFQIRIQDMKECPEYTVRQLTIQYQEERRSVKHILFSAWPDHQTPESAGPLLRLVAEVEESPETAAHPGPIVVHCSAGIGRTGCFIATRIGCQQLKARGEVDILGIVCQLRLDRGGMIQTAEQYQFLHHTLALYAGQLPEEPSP

[12] = target: T6, Dual specificity protein phosphatase 3 (Homo sapiens, UniProt P51452); test: SAR VHR1 Fluorescent Assay for In Vitro dose response studies. [Related pubchem assays (depositor defined):AID1654, AID1661, AID1878, AID1992, AID2004, AID2070, AID2085]; type: functional
T6 sequence (P51452 whole entry): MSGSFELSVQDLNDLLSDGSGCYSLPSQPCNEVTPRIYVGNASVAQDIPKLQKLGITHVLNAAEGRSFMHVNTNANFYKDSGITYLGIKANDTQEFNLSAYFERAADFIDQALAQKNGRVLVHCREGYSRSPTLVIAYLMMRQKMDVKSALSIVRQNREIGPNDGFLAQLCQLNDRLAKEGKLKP

[13] = target: T7, Tyrosine-protein phosphatase non-receptor type 22 (Homo sapiens, UniProt Q9Y2R2); test: SAR LYP1 Fluorescent Assay using OMFP substrate for In Vitro dose response studies - Set 3. [Related pubchem assays (depositor defined):AID1779, AID1784, AID2140, AID2686]; type: functional
T7 sequence (Q9Y2R2 whole entry): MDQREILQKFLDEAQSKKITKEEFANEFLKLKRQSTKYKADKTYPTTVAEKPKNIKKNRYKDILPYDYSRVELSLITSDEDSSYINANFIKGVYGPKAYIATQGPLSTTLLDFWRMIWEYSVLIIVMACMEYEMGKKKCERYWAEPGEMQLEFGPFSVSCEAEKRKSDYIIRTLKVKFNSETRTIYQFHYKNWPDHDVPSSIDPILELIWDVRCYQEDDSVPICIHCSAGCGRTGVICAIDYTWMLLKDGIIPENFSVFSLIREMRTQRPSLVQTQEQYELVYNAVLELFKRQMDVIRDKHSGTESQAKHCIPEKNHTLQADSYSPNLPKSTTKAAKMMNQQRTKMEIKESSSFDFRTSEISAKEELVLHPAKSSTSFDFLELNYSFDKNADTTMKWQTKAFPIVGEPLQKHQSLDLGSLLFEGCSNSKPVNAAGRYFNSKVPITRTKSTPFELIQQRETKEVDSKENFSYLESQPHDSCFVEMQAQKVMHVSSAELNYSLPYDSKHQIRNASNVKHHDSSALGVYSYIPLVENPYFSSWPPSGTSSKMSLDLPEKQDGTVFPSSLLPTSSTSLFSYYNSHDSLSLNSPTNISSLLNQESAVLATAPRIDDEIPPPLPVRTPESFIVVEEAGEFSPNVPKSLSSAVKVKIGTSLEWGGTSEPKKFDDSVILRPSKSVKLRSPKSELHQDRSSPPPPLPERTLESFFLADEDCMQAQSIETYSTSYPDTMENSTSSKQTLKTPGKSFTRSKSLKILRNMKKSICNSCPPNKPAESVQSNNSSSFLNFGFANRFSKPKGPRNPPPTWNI

[14] = target: T8, Dual specificity protein phosphatase 6 (Rattus norvegicus, UniProt Q64346); type: functional;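 further: confirmatory in vitro dose-response testing of MKP-3 inhibition; recombinant His-tagged MKP-3 made in E. coli BL21 with OMFP substrate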
T8 sequence (Q64346 whole entry): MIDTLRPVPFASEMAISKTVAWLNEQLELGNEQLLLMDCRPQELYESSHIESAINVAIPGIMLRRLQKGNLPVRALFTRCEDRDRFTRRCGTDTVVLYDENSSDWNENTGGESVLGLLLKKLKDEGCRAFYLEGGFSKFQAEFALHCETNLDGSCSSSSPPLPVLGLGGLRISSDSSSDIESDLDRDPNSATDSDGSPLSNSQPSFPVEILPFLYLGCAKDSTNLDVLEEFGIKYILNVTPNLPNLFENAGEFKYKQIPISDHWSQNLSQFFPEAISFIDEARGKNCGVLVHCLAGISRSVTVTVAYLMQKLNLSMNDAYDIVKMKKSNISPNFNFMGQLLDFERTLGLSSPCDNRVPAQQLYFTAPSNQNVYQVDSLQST

[15] = target: T6, Dual specificity protein phosphatase 3; test: SAR VHR1 absorbance Assay for In Vitro dose response studies. [Related pubchem assays (depositor defined):AID1654, AID1661, AID1878, AID1992, AID2004]
[16] = target: T7, Tyrosine-protein phosphatase non-receptor type 22; test: inhibition of lymphoid tyrosine phosphatase LYP – biochemical, pCAP fluorogenic substrate, fluorescence, set 3, SAR follow-up (AID 449727); type: functional
[17] = target: T5, Tyrosine-protein phosphatase non-receptor type 7; test: inhibition of hematopoietic tyrosine phosphatase HePTP – biochemical, set 2, SAR follow-up (AID 449736); type: functional
[18] = target: Peroxisome proliferator-activated receptor gamma/Nuclear receptor coactivator 1 (Homo sapiens, UniProt P37231); test: TR-FRET dose response biochemical High Throughput Screening assay for agonists of the steroid receptor coactivator 1 (SRC-1) recruitment by the peroxisome proliferator-activated receptor gamma (PPAR gamma): non-selective agonists. [Related pubchem assays (depositor defined):AID1300, AID1808, AID504735, AID631]; type: protein assay
Sequence of Peroxisome proliferator-activated receptor gamma/Nuclear receptor coactivator 1 (P37231 whole entry): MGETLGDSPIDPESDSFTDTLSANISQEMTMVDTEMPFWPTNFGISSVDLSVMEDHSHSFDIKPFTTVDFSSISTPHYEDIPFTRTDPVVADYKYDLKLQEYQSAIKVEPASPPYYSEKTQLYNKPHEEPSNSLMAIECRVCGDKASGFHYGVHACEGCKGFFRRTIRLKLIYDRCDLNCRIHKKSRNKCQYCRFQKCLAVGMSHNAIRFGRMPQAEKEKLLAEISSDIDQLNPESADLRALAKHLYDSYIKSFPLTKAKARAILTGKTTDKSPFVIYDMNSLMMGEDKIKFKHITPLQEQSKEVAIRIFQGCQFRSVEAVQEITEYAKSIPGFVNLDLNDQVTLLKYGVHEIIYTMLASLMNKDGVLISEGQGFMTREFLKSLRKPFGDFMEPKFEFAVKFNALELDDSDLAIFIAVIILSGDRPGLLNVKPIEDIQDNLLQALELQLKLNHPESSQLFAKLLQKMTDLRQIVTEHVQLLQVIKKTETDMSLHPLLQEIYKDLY
Sequence of Peroxisome proliferator-activated receptor gamma/Nuclear receptor coactivator 1 (Q15788 whole entry, further chain): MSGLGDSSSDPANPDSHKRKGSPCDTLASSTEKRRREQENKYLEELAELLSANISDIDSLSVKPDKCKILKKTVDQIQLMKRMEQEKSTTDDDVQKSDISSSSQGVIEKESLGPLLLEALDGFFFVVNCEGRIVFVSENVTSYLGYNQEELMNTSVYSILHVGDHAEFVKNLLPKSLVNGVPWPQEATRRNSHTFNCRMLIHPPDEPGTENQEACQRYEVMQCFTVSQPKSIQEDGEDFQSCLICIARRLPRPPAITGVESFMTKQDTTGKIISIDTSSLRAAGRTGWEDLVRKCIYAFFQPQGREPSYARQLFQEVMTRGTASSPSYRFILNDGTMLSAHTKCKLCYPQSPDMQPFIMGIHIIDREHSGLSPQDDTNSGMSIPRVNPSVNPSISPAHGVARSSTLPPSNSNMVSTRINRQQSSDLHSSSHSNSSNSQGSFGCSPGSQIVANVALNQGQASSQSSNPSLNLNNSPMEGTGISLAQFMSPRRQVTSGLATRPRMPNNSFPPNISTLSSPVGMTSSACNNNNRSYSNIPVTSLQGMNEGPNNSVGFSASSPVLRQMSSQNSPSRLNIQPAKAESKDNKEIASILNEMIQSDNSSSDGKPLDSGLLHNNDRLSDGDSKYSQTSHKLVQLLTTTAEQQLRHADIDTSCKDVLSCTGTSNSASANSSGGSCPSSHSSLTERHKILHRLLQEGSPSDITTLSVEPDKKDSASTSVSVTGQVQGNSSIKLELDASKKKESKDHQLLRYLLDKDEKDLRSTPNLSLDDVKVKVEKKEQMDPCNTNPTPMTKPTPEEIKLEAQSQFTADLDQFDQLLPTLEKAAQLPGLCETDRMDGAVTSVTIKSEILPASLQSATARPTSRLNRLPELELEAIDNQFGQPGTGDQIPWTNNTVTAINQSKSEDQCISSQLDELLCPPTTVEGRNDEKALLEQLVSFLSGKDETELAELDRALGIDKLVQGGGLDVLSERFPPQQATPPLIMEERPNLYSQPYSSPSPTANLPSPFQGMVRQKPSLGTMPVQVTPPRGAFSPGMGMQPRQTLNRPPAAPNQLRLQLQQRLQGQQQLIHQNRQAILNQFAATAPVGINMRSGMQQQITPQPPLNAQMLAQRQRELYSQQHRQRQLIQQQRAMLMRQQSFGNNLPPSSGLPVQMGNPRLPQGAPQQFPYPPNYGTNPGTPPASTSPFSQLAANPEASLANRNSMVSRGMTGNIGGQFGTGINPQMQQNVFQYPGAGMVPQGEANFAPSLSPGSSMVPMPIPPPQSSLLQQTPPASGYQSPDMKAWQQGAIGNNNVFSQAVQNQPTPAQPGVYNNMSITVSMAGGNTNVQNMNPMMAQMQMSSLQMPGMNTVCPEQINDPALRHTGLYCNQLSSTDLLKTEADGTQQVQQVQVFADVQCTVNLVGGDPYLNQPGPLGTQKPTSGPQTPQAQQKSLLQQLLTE

[19] = target: Peroxisome proliferator-activated receptor gamma/Nuclear receptor coactivator 2 (Homo sapiens, UniProt P37231); test: (§1) TR-FRET dose response biochemical High Throughput Screening assay for agonists of the steroid receptor coactivator 2 (SRC-2) recruitment by the peroxisome proliferator-activated receptor gamma (PPAR gamma): non-selective agonists. [Related pubchem assays: 1297, 1032 ]; type: functional
[20] = target: Peroxisome proliferator-activated receptor gamma/Nuclear receptor coactivator 3 (Homo sapiens, UniProt P37231); test: as §1, with “3 (SRC-3)” for “2 (SRC-2)”, “1301 (Confirmation screen.), 1048 (Primary screen.)]” for “1297, 1032 ]”; type: functional
[21] = target: Voltage-gated inwardly rectifying potassium channel KCNH2 (Homo sapiens, UniProt Q12809); test: concentration-dependent hERG rescue from blockers – cell-based, thallium flux, dose response (AID 2121); type: ADME
Sequence of Voltage-gated inwardly rectifying potassium channel KCNH2 (Q12809 whole entry): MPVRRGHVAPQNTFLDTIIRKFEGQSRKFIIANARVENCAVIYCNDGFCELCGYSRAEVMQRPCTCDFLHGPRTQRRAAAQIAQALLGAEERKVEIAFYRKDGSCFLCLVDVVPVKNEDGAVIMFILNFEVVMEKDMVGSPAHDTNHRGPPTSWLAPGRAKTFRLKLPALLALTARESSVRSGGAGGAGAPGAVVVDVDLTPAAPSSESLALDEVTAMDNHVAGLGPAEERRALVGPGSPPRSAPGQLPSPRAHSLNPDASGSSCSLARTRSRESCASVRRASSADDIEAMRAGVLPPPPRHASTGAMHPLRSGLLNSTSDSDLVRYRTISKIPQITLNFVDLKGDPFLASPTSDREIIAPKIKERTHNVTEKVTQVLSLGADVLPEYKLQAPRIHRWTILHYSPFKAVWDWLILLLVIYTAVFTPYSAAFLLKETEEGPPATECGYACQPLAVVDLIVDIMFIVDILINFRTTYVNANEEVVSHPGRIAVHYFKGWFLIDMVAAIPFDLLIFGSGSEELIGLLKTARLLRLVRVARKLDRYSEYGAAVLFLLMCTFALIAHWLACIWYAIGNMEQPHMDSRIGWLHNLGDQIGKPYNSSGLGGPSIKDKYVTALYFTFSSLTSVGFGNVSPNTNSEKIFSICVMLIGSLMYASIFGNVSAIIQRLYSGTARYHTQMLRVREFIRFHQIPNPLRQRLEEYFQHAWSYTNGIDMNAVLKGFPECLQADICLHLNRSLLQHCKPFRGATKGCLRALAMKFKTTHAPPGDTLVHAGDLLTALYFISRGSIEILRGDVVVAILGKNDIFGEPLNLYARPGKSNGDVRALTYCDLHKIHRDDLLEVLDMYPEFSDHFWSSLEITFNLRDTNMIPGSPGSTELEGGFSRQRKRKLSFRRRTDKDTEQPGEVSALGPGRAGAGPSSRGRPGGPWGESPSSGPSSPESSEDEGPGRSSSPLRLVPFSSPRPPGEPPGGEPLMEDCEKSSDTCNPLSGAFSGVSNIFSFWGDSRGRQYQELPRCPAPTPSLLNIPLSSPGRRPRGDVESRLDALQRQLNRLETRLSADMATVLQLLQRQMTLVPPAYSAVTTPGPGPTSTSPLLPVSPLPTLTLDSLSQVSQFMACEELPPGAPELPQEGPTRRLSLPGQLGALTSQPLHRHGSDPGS

T1 sequence (P21554 whole entry): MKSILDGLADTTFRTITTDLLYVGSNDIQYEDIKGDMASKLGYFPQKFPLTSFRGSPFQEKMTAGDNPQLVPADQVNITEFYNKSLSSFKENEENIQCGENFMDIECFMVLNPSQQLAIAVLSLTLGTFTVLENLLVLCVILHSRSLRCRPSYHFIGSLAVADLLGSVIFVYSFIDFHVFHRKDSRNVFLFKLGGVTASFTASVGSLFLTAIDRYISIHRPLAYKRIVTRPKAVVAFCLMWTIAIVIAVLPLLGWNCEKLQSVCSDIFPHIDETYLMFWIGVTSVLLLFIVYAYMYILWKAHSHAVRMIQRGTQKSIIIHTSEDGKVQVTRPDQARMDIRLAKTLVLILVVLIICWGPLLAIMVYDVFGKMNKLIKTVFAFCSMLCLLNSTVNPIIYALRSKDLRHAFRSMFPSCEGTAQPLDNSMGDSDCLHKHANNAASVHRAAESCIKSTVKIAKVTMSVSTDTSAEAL

| SMILES | EC50 (Cannabinoid receptor 1 [1]) | IC50 (Cannabinoid receptor 1 [2]) | IC50 [3] | IC50 (Cannabinoid receptor 2 [4]) | EC50 [5] | IC50 [7] | EC50 (Cannabinoid receptor 2 [9]) | EC50 [18] | EC50 [19] | EC50 [20] | also measured |
| --- | --- | --- | --- | --- | --- | --- | --- | --- | --- | --- | --- |
| COc1ccc(-c2cc(C(=O)Nc3ccc(S(=O)(=O)Nc4onc(C)c4C)cc3)c3ccccc3n2)cc1 | > 32 µM (inactive) | 16.9 µM (inactive) | 18.2 µM (inactive) | > 32 µM (inactive) | > 32 µM (inactive) | > 32 µM (inactive) | > 32 µM (inactive) | – | – | – | IC50 [6]: 5.33 µM (active); IC50 [8]: 17.3 µM (active) |
| CSc1ccc(OCC(=O)O)cc1C | – | – | – | – | – | – | – | – | – | – | IC50 [10]: > 100 µM (inactive); IC50 [11]: > 100 µM (inactive); IC50 [12]: > 99 µM (inactive); IC50 [13]: > 100 µM (inactive); IC50 [14]: > 99 µM (inactive); IC50 [15]: > 100 µM (inactive); IC50 [16]: > 100 µM (inactive); IC50 [17]: > 100 µM (inactive) |
| CCCC(=O)Nc1c2c(nc3ccccc13)N(c1ccccc1)CC2 | – | – | – | – | – | – | – | > 79.4 µM (inactive) | > 79.4 µM (not active) | > 79.4 µM (not active) | – |
| O=C(NN1C(=O)/C(=C/c2nc3ccccc3[nH]2)SC1=S)c1cccc(Cl)c1 | – | – | – | – | – | – | – | > 79.4 µM (inactive) | > 79.4 µM (not active) | > 79.4 µM (not active) | EC50 [21]: 7.01 µM (active) |
| CC(C)(C)c1ccc(-c2c(-c3nc4ccccc4[nH]3)n[nH]c2-c2ccccc2)cc1 | > 32 µM (inactive) | 0.474 µM (active) | 11.7 µM (inactive) | 13.9 µM (inactive) | > 32 µM (inactive) | > 32 µM (inactive) | > 32 µM (inactive) | – | – | – | – |

Source: ChEMBL document CHEMBL1201862, “PubChem BioAssay data set” (2004)
